Measured values published in patent US4407798A, “Cephem compounds” (Fujisawa Pharmaceutical Co., Ltd., priority 1980, dated 1983).
≈ marks a conversion by molar mass, not a printed value.

Test system: Escherichia coli 31
Experiment: In vitro antimicrobial activity, two-fold agar-plate dilution method (MIC)
Assay type: cell-based
Details: HI-agar, 37° C., 20 hours
Method: Now in order to show the utility of the object compounds (I), the test data on the in vitro antimicrobial activity of some representative compounds (I) of this invention are shown in the following. Test: In vitro Antimicrobial Activity.
In vitro Antimicrobial activity was determined by the two-fold agar-plate dilution method as described below.
One loopful of an overnight culture of each test strain in Tripticase-soy broth (approximately 10^8 viable cells per ml) was streaked on heart infusion agar (HI-agar) containing graded concentrations of antimicrobial agents, and the minimal inhibitory concentration (MIC) was expressed in term of μg/ml after incubation at 37° C. for 20 hours.

MIC [µg/mL] | Structure (SMILES)
0.05 (≈ 0.101 µM) | C#CCO/N=C(\C(=O)NC1C(=O)N2C(C(=O)[O-])=C(C[n+]3ccccc3)CSC12)c1nccc(N)n1 (stereo not drawn) [Compound D, 7-[2-Propargyloxyimino-2-(4-aminopyrimidin-2-yl)acetamido]-3-(1-pyridiniomethyl)-3-cephem-4-carboxylate (syn isomer)]
0.05 (≈ 0.097 µM) | CSCO/N=C(\C(=O)NC1C(=O)N2C(C(=O)[O-])=C(C[n+]3ccccc3)CSC12)c1nccc(N)n1 (stereo not drawn) [Compound B, 7-[2-Methylthiomethoxyimino-2-(4-aminopyrimidin-2-yl)acetamido]-3-(1-pyridiniomethyl)-3-cephem-4-carboxylate (syn isomer)]
0.05 (≈ 0.0955 µM) | Nc1ccnc(/C(=N/OC2CCCC2)C(=O)NC2C(=O)N3C(C(=O)[O-])=C(C[n+]4ccccc4)CSC23)n1 (stereo not drawn) [Compound A, 7-[2-Cyclopentyloxyimino-2-(4-aminopyrimidin-2-yl)acetamido]-3-(1-pyridiniomethyl)-3-cephem-4-carboxylate (syn isomer)]
0.05 (≈ 0.103 µM) | CCO/N=C(\C(=O)NC1C(=O)N2C(C(=O)[O-])=C(C[n+]3ccccc3)CSC12)c1nccc(N)n1 (stereo not drawn) [Compound C, 7-[2-Ethoxyimino-2-(4-aminopyrimidin-2-yl)acetamido]-3-(1-pyridiniomethyl)-3-cephem-4-carboxylate (syn isomer)]
